The values that follow come from patent publication US7795294B2, “Tetrahydro-2H-indazole pyrazole cannabinoid modulators” (Janssen Pharmaceutica N.V., priority 2006, dated 2010).

In one experiment the target is T1, human CB2 receptor (Homo sapiens, UniProt P34972).
T1 construct: expressed in transfected cells; host or cells: SK-N-MC cells, stably transfected with pcDNA3 CB-2 (human); semi-purified membrane pellet
Nature of the experiment: Binding assay for CB2 agonists or inverse agonists, [3H]-CP-55,940 displacement on membranes of transfected SK-N-MC cells. Particulars: for inhibition at 0.2 µM: read-out: Cannabinoid CB2 Receptor Binding percent inhibition. On the procedure:
(§1) The human CB1 and CB2 receptors were stably expressed in SK-N-MC cells transfected with pcDNA3 CB-1 (human) or pcDNA3 CB-2 (human). The cells were grown in T-180 cell culture flasks under standard cell culture conditions at 37° C. in a 5% CO2 atmosphere. The cells were harvested by trysinization and homogenized in a homogenization buffer (10 mM Tris, 0.2 mM MgCl2, 5 mM KCl, with protease inhibitors aprotinin, leupeptin, pepstatin A and bacitracin) and centrifuged (2000 g). The supernatant was then centrifuged in 2M sucrose (31,300 g) to produce a semi-purified membrane pellet. The pellet was resuspended in homogenization and stored at −80° C.
(§2) On the day of the assay, the pellet was thawed on ice and diluted in assay buffer (50 mM Tris-HCl, 5 mM MgCl2, 2.5 mM EDTA, 0.5 mg/mL fatty acid free bovine serum albumin, pH 7.5). […] The plate was covered and incubated for 90 minutes at 30° C. The contents were then aspirated onto a Packard Unifilter GF/C filter bottom plate prewet with 0.5% polyethyleneimine. The wells of the polypropylene plate were rinsed and aspirated seven times with a 0.9% saline-0.5% Tween 20 solution. The Unifilter plate was dried, a scintillation cocktail was added to each well and the counts representing binding were quantitated in a TopCount scintillation counter.
(§3) For compounds tested, an IC50 binding value was obtained from percent inhibition studies in which various test concentrations were used. The binding value was calculated by linear regression. An average value is shown for those compounds where two or more IC50 values were obtained.
(§4) An average value is shown for those compounds where two or more percent inhibition values were obtained.

Another experiment has as its target T2, human CB1 receptor (Homo sapiens, UniProt P21554).
T2 construct: expressed in transfected cells; host or cells: SK-N-MC cells, stably transfected with pcDNA3 CB-1 (human); semi-purified membrane pellet
Nature of the experiment: Binding assay for CB1 agonists or inverse agonists, [3H]-CP-55,940 displacement on membranes of transfected SK-N-MC cells. Particulars: for inhibition at 0.2 µM: read-out: Cannabinoid CB1 Receptor Binding percent inhibition. As for the experimental part: as §1, §2, §3, §4

T1 sequence (P34972 whole entry): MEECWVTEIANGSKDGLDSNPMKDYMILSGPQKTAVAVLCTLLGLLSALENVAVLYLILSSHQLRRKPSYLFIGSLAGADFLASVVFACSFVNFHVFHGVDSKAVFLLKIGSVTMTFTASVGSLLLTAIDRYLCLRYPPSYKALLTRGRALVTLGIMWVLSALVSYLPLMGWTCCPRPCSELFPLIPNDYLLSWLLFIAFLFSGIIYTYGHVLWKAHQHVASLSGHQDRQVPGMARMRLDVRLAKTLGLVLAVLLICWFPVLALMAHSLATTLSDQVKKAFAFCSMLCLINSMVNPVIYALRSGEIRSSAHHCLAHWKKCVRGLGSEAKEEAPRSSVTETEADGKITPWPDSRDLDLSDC
T2 sequence (P21554 whole entry): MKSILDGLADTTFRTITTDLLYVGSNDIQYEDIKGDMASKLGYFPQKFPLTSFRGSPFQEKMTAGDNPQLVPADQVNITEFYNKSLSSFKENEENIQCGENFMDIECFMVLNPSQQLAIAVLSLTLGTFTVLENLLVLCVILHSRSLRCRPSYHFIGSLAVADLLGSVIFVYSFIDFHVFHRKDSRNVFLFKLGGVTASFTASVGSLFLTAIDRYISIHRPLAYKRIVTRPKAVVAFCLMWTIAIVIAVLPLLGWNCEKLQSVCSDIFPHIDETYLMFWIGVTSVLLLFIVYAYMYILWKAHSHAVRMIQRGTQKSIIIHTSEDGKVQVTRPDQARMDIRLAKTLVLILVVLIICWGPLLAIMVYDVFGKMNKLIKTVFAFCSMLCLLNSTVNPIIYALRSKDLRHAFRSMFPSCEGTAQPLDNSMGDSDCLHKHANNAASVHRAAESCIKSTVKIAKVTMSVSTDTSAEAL

The term inhibition denotes how much of the control response was suppressed. The IC50 is the concentration that gives 50% inhibition. Low values mean inhibition by little substance, high ones a need for much substance. Regarding `O=C(NN1CCCCC1)C1CCCc2c1nn(-c1ccc(Cl)cc1Cl)c2-c1ccc(Cl)cc1` (centres unmarked) [Cpd 33, 3-(4-chloro-phenyl)-2-(2,4-dichloro-phenyl)-4,5,6,7-tetrahydro-2H-indazole-7-carboxylic acid piperidin-1-ylamide], the inhibition at 0.2 µM at human CB2 receptor was determined as 0%. Moreover, the IC50 at human CB1 receptor was 39 nM.

In the case of `O=C(NN1CCCCCC1)C1CCCc2c1nn(-c1ccc(Cl)cc1Cl)c2-c1ccc(Cl)cc1` (centres unmarked) [Cpd 34, 3-(4-chloro-phenyl)-2-(2,4-dichloro-phenyl)-4,5,6,7-tetrahydro-2H-indazole-7-carboxylic acid azepan-1-ylamide], the inhibition at 0.2 µM on human CB2 receptor was found to be 0%. This molecule displayed an IC50 at human CB1 receptor of 35 nM.

With `CN(NC(=O)C1CCCc2c1nn(-c1ccc(Cl)cc1Cl)c2-c1ccc(Cl)cc1)c1ccccc1` (centres unmarked) [Cpd 35, 3-(4-chloro-phenyl)-2-(2,4-dichloro-phenyl)-4,5,6,7-tetrahydro-2H-indazole-7-carboxylic acid N′-methyl-N′-phenyl-hydrazide], the inhibition at 0.2 µM at human CB2 receptor worked out at 3%. On human CB1 receptor, the IC50 was determined as 2 nM.

`C[C@@H](NC(=O)C1CCCc2c1nn(-c1ccc(Cl)cc1Cl)c2-c1ccc(F)cc1)C1CCCCC1` (stereo partly drawn) [Cpd 36, 2-(2,4-dichloro-phenyl)-3-(4-fluoro-phenyl)-4,5,6,7-tetrahydro-2H-indazole-7-carboxylic acid [(1R)-1-cyclohexyl-ethyl]-amide]: the inhibition at 0.2 µM on human CB2 receptor was determined as 0%. The molecule further had an IC50 at human CB1 receptor of 2 nM.

With `C[C@@H](NC(=O)[C@H]1CCCc2c1nn(-c1ccc(Cl)cc1Cl)c2-c1ccc(F)cc1)c1ccccc1` [Cpd 37, (7S)-2-(2,4-dichloro-phenyl)-3-(4-fluoro-phenyl)-4,5,6,7-tetrahydro-2H-indazole-7-carboxylic acid [(1R)-1-phenyl-ethyl]-amide], the inhibition at 0.2 µM turned out to be 4% on human CB2 receptor and 50% at human CB1 receptor.

`C[C@@H](NC(=O)[C@@H]1CCCc2c1nn(-c1ccc(Cl)cc1Cl)c2-c1ccc(F)cc1)c1ccccc1` [Cpd 38, (7R)-2-(2,4-dichloro-phenyl)-3-(4-fluoro-phenyl)-4,5,6,7-tetrahydro-2H-indazole-7-carboxylic acid [(1R)-1-phenyl-ethyl]-amide]: the inhibition at 0.2 µM at human CB2 receptor is 14%. The same molecule had an IC50 at human CB1 receptor of 2 nM.

As to `C[C@@H](NC(=O)[C@H]1CCCc2c1nn(-c1ccc(Cl)cc1Cl)c2-c1ccc(Cl)cc1)c1ccccc1` [Cpd 39, (7S)-3-(4-chloro-phenyl)-2-(2,4-dichloro-phenyl)-4,5,6,7-tetrahydro-2H-indazole-7-carboxylic acid [(1R)-1-phenyl-ethyl]-amide], the inhibition at 0.2 µM at human CB2 receptor was found to be 1%. At human CB1 receptor, this molecule yielded an IC50 of 22 nM.

As to `C[C@@H](NC(=O)[C@@H]1CCCc2c1nn(-c1ccc(Cl)cc1Cl)c2-c1ccc(Cl)cc1)c1ccccc1` [Cpd 40, (7R)-3-(4-chloro-phenyl)-2-(2,4-dichloro-phenyl)-4,5,6,7-tetrahydro-2H-indazole-7-carboxylic acid [(1R)-1-phenyl-ethyl]-amide], the inhibition at 0.2 µM on human CB2 receptor worked out at 11%. Besides, on human CB1 receptor, the IC50 came out at 0.6 nM.

With `O=C(NN1CCCCC1)C1CCCc2c1nn(-c1ccc(Cl)cc1Cl)c2-c1ccc(Br)cc1` (centres unmarked) [Cpd 41, 3-(4-bromo-phenyl)-2-(2,4-dichloro-phenyl)-4,5,6,7-tetrahydro-2H-indazole-7-carboxylic acid piperidin-1-ylamide], the inhibition at 0.2 µM on human CB2 receptor was 26%. On human CB1 receptor, this molecule yielded an IC50 of 40 nM.

Regarding `C[C@@H](NC(=O)C1CCCc2c1nn(-c1ccc(Cl)cc1Cl)c2-c1ccc(Br)cc1)C1CCCCC1` (stereo partly drawn) [Cpd 44, 3-(4-bromo-phenyl)-2-(2,4-dichloro-phenyl)-4,5,6,7-tetrahydro-2H-indazole-7-carboxylic acid [(1R)-1-cyclohexyl-ethyl]-amide], at human CB2 receptor, the inhibition at 0.2 µM worked out at 21%. For the same molecule, on human CB1 receptor, the IC50 stood at 2 nM.

Turning to `C[C@@H](NC(=O)[C@H]1CCCc2c1nn(-c1ccc(Cl)cc1Cl)c2-c1ccc(Br)cc1)c1ccccc1` [Cpd 45, (7S)-3-(4-bromo-phenyl)-2-(2,4-dichloro-phenyl)-4,5,6,7-tetrahydro-2H-indazole-7-carboxylic acid [(1R)-1-phenyl-ethyl]-amide], the inhibition at 0.2 µM at human CB2 receptor turned out to be 11%; at human CB1 receptor, 66%.

For `C[C@@H](NC(=O)[C@@H]1CCCc2c1nn(-c1ccc(Cl)cc1Cl)c2-c1ccc(Br)cc1)c1ccccc1` [Cpd 46, (7R)-3-(4-bromo-phenyl)-2-(2,4-dichloro-phenyl)-4,5,6,7-tetrahydro-2H-indazole-7-carboxylic acid [(1R)-1-phenyl-ethyl]-amide], on human CB2 receptor, the inhibition at 0.2 µM was 28%. At human CB1 receptor, this molecule registered an IC50 of 0.8 nM.

For `C[C@@H](NC(=O)C1CCCc2c1nn(-c1ccc(Cl)cc1Cl)c2-c1ccc(Cl)s1)C1CCCCC1` (stereo partly drawn) [Cpd 47, 3-(5-chloro-thiophen-2-yl)-2-(2,4-dichloro-phenyl)-4,5,6,7-tetrahydro-2H-indazole-7-carboxylic acid [(1R)-1-cyclohexyl-ethyl]-amide], the inhibition at 0.2 µM on human CB2 receptor worked out at 5%. For the same molecule, the IC50 on human CB1 receptor amounted to 4 nM.

Take `C[C@@H](NC(=O)[C@H]1CCCc2c1nn(-c1ccc(Cl)cc1Cl)c2-c1ccc(Cl)s1)c1ccccc1` [Cpd 48, (7S)-3-(5-chloro-thiophen-2-yl)-2-(2,4-dichloro-phenyl)-4,5,6,7-tetrahydro-2H-indazole-7-carboxylic acid [(1R)-1-phenyl-ethyl]-amide]: the inhibition at 0.2 µM on human CB2 receptor is 0%; at human CB1 receptor, 38%.

Regarding `C[C@@H](NC(=O)[C@@H]1CCCc2c1nn(-c1ccc(Cl)cc1Cl)c2-c1ccc(Cl)s1)c1ccccc1` [Cpd 49, (7R)-3-(5-chloro-thiophen-2-yl)-2-(2,4-dichloro-phenyl)-4,5,6,7-tetrahydro-2H-indazole-7-carboxylic acid [(1R)-1-phenyl-ethyl]-amide], the inhibition at 0.2 µM at human CB2 receptor came to 14%. Moreover, the IC50 at human CB1 receptor stood at 7 nM.

With `O=C(NN1CC2CCCC2C1)C1CCCc2c1nn(-c1ccc(Cl)cc1Cl)c2-c1ccc(Cl)cc1` (centres unmarked) [Cpd 50, 3-(4-chloro-phenyl)-2-(2,4-dichloro-phenyl)-4,5,6,7-tetrahydro-2H-indazole-7-carboxylic acid (hexahydro-cyclopenta[c]pyrrol-2-yl)-amide], the inhibition at 0.2 µM at human CB2 receptor came to 3%; on human CB1 receptor, 39%.

For `O=C(NN1CCCCC1)[C@@H]1CCCc2c1nn(-c1ccc(Cl)cc1Cl)c2-c1ccc(Br)cc1` [Cpd 51, (7R)-3-(4-bromo-phenyl)-2-(2,4-dichloro-phenyl)-4,5,6,7-tetrahydro-2H-indazole-7-carboxylic acid piperidin-1-ylamide], the inhibition at 0.2 µM on human CB2 receptor was found to be 27%. Besides, the IC50 on human CB1 receptor is 14 nM.

With `C[C@@H](NC(=O)[C@H]1CCCc2c1nn(-c1ccc(Cl)cc1Cl)c2-c1ccc(Br)s1)c1ccccc1` [Cpd 52, (7S)-3-(5-bromo-thiophen-2-yl)-2-(2,4-dichloro-phenyl)-4,5,6,7-tetrahydro-2H-indazole-7-carboxylic acid [(1R)-1-phenyl-ethyl]-amide], the inhibition at 0.2 µM at human CB2 receptor was found to be 20%; on human CB1 receptor it was 44%.

For `C[C@@H](NC(=O)[C@@H]1CCCc2c1nn(-c1ccc(Cl)cc1Cl)c2-c1ccc(Br)s1)c1ccccc1` [Cpd 53, (7R)-3-(5-bromo-thiophen-2-yl)-2-(2,4-dichloro-phenyl)-4,5,6,7-tetrahydro-2H-indazole-7-carboxylic acid [(1R)-1-phenyl-ethyl]-amide], at human CB2 receptor, the inhibition at 0.2 µM is 36%. In addition, the IC50 on human CB1 receptor stood at 4 nM.

`C[C@@H](NC(=O)[C@H]1CCCc2c1nn(-c1ccc(Cl)cc1Cl)c2-c1ccc(Br)s1)C1CCCCC1` [Cpd 54, (7S)-3-(5-bromo-thiophen-2-yl)-2-(2,4-dichloro-phenyl)-4,5,6,7-tetrahydro-2H-indazole-7-carboxylic acid [(1R)-1-cyclohexyl-ethyl]-amide]: the inhibition at 0.2 µM at human CB2 receptor came out at 12%; at human CB1 receptor, 35%.

As for `C[C@@H](NC(=O)[C@@H]1CCCc2c1nn(-c1ccc(Cl)cc1Cl)c2-c1ccc(Br)s1)C1CCCCC1` [Cpd 55, (7R)-3-(5-bromo-thiophen-2-yl)-2-(2,4-dichloro-phenyl)-4,5,6,7-tetrahydro-2H-indazole-7-carboxylic acid [(1R)-1-cyclohexyl-ethyl]-amide], at human CB2 receptor, the inhibition at 0.2 µM amounted to 27%. This molecule also gave an IC50 at human CB1 receptor of 3 nM.

Turning to `O=C(N[C@H](CO)c1ccccc1)[C@H]1CCCc2c1nn(-c1ccc(Cl)cc1Cl)c2-c1ccc(Br)s1` [Cpd 56, (7S)-3-(5-bromo-thiophen-2-yl)-2-(2,4-dichloro-phenyl)-4,5,6,7-tetrahydro-2H-indazole-7-carboxylic acid [(1S)-2-hydroxy-1-phenyl-ethyl]-amide], the IC50 at human CB2 receptor worked out at 300 nM; on human CB1 receptor it was 46 nM.
